Experimental data taken from ChEMBL document CHEMBL5346934 (J Med Chem, 2023).
In brackets after ≈: the same amount, converted by molar mass.

How the values were obtained:
Vaccinia virus [1] = assay: Antiviral activity against Vaccinia virus infected in African green monkey Vero cells assessed as reduction virus induced cytopathic effect incubated for 24 hrs by MTT assay; type: functional, organism-based; conditions: Orthopoxvirus vaccinia
Vaccinia virus [2] = assay: Antiviral activity against Vaccinia virus infected in African green monkey BSC-1 cells; type: functional, organism-based, Orthopoxvirus vaccinia
Vaccinia virus [3] = assay: Antiviral activity against Vaccinia virus VG9 infected in African green monkey BSC-1 cells; type: functional, organism-based, Orthopoxvirus vaccinia
Monkeypox virus = assay: Antiviral activity against Monkeypox virus Zr-599 infected in African green monkey Vero E6 cells assessed as reduction in plaque formation measured after 72 hrs by microscopic analysis; type: functional, organism-based; conditions: Zr-599, Vero C1008, 72 h
Vaccinia virus [4] = assay: Antiviral activity against Vaccinia virus Copenhagen infected in human HFF cells assessed as assessed as reduction in virus-induced cytopathic effect incubated for 7 days by microscopic analysis; type: functional, organism-based; conditions: Orthopoxvirus vaccinia, 168 h
Vaccinia virus [5] = assay: Antiviral activity against Vaccinia virus IHD-J infected in BSC40 cells assessed as reduction in plaque formation measured after 72 hrs by crystal violet staining based analysis; type: functional, organism-based; conditions: Orthopoxvirus vaccinia, BSC-40, 72 h
Vaccinia virus [6] = assay: Antiviral activity against Vaccinia virus infected in human HEL cells; type: functional, organism-based; conditions: Orthopoxvirus vaccinia
HEL = assay: Cytotoxicity against human HEL cells assessed as reduction in cell growth; type: functional
Cowpox virus [7] = assay: Antiviral activity against Cowpox virus infected in Vero cells measured after 4 days by colorimetric assay; type: functional, organism-based; conditions: 96 h
Ectromelia virus = assay: Antiviral activity against ectromelia virus K-1 infected in Vero cells measured after 4 days by colorimetric assay; type: functional, organism-based; conditions: K-1, Vero, 96 h
Vaccinia virus [8] = assay: Antiviral activity against Vaccinia virus Copenhagen infected in African green monkey Vero cells measured after 4 days by colorimetric assay; type: functional, organism-based; conditions: Orthopoxvirus vaccinia, 96 h
Cowpox virus [9] = assay: Antiviral activity against Cowpox virus Grishak infected in African green monkey Vero cells measured after 4 days by colorimetric assay; type: functional, organism-based; conditions: 96 h
Variola virus = assay: Antiviral activity against Variola virus 7124 infected in monkey LLC-MK2 cells; type: functional, organism-based; conditions: Variola virus, 7124, LLC-MK2
Vaccinia virus [10] = assay: Antiviral activity against Vaccinia virus infected in human HFF cells; type: functional, organism-based; conditions: Orthopoxvirus vaccinia
[11] = Orthopoxvirus vaccinia, VG9, BSC-1

**Q.** How did the EC50 (Vaccinia virus [1]) turn out when `CCCCCCCCCCCCCCCCCCOCCOP1(=O)COCC(Cn2ccc(N)nc2=O)O1` (configuration not stated) was run?
**A.** 1100 nM

**Q.** Which EC50 (Vaccinia virus [2]; Orthopoxvirus vaccinia, BSC-1) does the source give for `N#CC1(c2ccc(NC(=O)c3cccnc3NCc3ccncc3)cc2)CCCC1` [RIVOCERANIB] here?
**A.** 2500 nM

**Q.** And the EC50 (Vaccinia virus [3]; [11])?
**A.** 2700 nM

**Q.** What does the source list for `COc1c(C)c2c(c(O)c1C/C=C(\C)CCC(=O)OCCN1CCOCC1)C(=O)OC2` [MYCOPHENOLATE MOFETIL]?
**A.** EC50 (Vaccinia virus [2]; Orthopoxvirus vaccinia, BSC-1): 200 nM; EC50 (Vaccinia virus [3]; [11]): 100 nM

**Q.** With `CC(C)C(=O)OC[C@H]1O[C@@H](n2cc/c(=N\O)[nH]c2=O)[C@H](O)[C@@H]1O` [MOLNUPIRAVIR] as the compound, how does the EC50 (Monkeypox virus) read?
**A.** 1350 nM

**Q.** Which EC50 (Vaccinia virus [4]) does the source give for `Cc1ccnc(NC(c2ccccc2F)c2ccc3cccnc3c2O)c1` (configuration not stated) here?
**A.** 2900 nM

**Q.** For `Cc1ccc(C2Nc3ccccc3C(=O)N2c2ccccc2)s1` (configuration not stated), which EC50 (Vaccinia virus [5]) is on record?
**A.** 2200 nM

**Q.** How did the EC50 (Vaccinia virus [2]; Orthopoxvirus vaccinia, BSC-1) turn out when `CN(Cc1cnc2nc(N)nc(N)c2n1)c1ccc(C(=O)N[C@@H](CCC(=O)O)C(=O)O)cc1` [METHOTREXATE] was run?
**A.** 2200 nM

**Q.** What about the EC50 (Vaccinia virus [3]; [11]) of the same compound?
**A.** 6100 nM

**Q.** For `Cc1nn(C)c(C)c1CCOc1c(-c2ccc3c(c2)c(CN(C)C)nn3C)ccc(F)c1F`, which EC50 (Vaccinia virus [5]) is on record?
**A.** 130 nM

**Q.** With `O=C1N(Nc2ccc(Cl)c(C(F)(F)F)c2)C(=O)C23C4C=CC5C4C4C(C=CC42)C153` as the compound, how does the IC50 (Vaccinia virus [6]) read?
**A.** 800 nM

**Q.** What about the CC50 (HEL) of the same compound?
**A.** > 100000 nM

**Q.** How did the IC50 (Vaccinia virus [6]) turn out when `O=C1N(Nc2ccc(Cl)c(Cl)c2)C(=O)C23C4C=CC5C4C4C(C=CC42)C153` was run?
**A.** 480 nM

**Q.** And the CC50 (HEL)?
**A.** > 100000 nM

**Q.** What does the source list for `COc1ccc(/C=C/C(=O)Nc2ccccc2C(=O)O)cc1OC` [TRANILAST]?
**A.** EC50 (Vaccinia virus [2]; Orthopoxvirus vaccinia, BSC-1): 900 nM; EC50 (Vaccinia virus [3]; [11]): 800 nM

**Q.** How did the EC50 (Vaccinia virus [1]) turn out when `Nc1ccn(C[C@@H]2COP(=O)(O)CO2)c(=O)n1` was run?
**A.** 50600 nM

**Q.** What about the EC50 (Cowpox virus [7]) of the same compound?
**A.** 48300 nM

**Q.** Which results are given for `O=C1N(Nc2ccc(C(F)(F)F)cc2)C(=O)C23C4C=CC5C4C4C(C=CC42)C153`?
**A.** IC50 (Vaccinia virus [6]): 1200 nM; CC50 (HEL): > 100000 nM

**Q.** Which EC50 (Vaccinia virus [2]; bsc-1) does the source give for RAUWOLFIA SERPENTINA here?
**A.** 9200 nM

**Q.** And the EC50 (Vaccinia virus [3]; bsc-1)?
**A.** 9800 nM

**Q.** `CC(=O)C1=C2C=CCCN2C(=O)NC1c1ccccc1Br` (configuration not stated) was tested. Which IC50 (Vaccinia virus [1]) did it give?
**A.** 300 nM

**Q.** Which EC50 (Vaccinia virus [2]; Orthopoxvirus vaccinia, BSC-1) does the source give for `Cc1cc(C2CCCCC2)n(O)c(=O)c1` [CICLOPIROX] here?
**A.** 5800 nM

**Q.** What about the EC50 (Vaccinia virus [3]; [11]) of the same compound?
**A.** 6900 nM

**Q.** For `Nc1ncnc2c1ncn2COC(CO)CO`, which EC50 (Cowpox virus [7]) is on record?
**A.** 3500 nM

**Q.** How did the IC50 (Vaccinia virus [1]) turn out when `CC(=O)C1=C2C=CCCN2C(=O)NC1c1ccccc1` (configuration not stated) was run?
**A.** 5900 nM

**Q.** What does the source list for `O=C1N(Nc2ccc(Cl)cc2)C(=O)C23C4C=CC5C4C4C(C=CC42)C153`?
**A.** IC50 (Vaccinia virus [6]): 8300 nM; CC50 (HEL): > 100000 nM

**Q.** Which EC50 (Monkeypox virus) does the source give for `OC(c1cc(C(F)(F)F)nc2c(C(F)(F)F)cccc12)C1CCCCN1` (configuration not stated) [MEFLOQUINE] here?
**A.** 5190 nM

**Q.** What does the source list for `COC(=O)Nc1nc2cc(C(=O)c3ccccc3)ccc2[nH]1` [MEBENDAZOLE]?
**A.** EC50 (Vaccinia virus [2]; Orthopoxvirus vaccinia, BSC-1): 5600 nM; EC50 (Vaccinia virus [3]; [11]): 9200 nM

**Q.** Which IC50 (Ectromelia virus) does the source give for `CC1(C)[C@@H]2CC[C@@]1(C)[C@H](NC(=O)c1ccc([N+](=O)[O-])cc1)C2` here?
**A.** 8000 nM

**Q.** And the IC50 (Vaccinia virus [8])?
**A.** 900 nM

**Q.** And the IC50 (Cowpox virus [9])?
**A.** 18400 nM

**Q.** For `Nc1ncnc2c1ncn2[C@@H]1C=C(CO)[C@@H](O)[C@H]1O` [NEOPLANOCIN A], which EC50 (Variola virus) is on record?
**A.** 100 nM

**Q.** With `Fc1ccc(Nc2c(-c3ccccn3)nc3ccc(Cl)cn23)cc1` as the compound, how does the EC50 (Vaccinia virus [4]) read?
**A.** 6500 nM

**Q.** `CCCCCCCCCCCCCCCCCCOCCOP(=O)(O)CO[C@H](CO)Cn1ccc(N)nc1=O` was tested. Which EC50 (Vaccinia virus [1]) did it give?
**A.** 200 nM

**Q.** How did the IC50 (Vaccinia virus [10]) turn out when `CO[C@H]1/C=C/O[C@@]2(C)Oc3c(C)c(O)c4c(O)c(c(/C=N/N5CCN(C)CC5)c(O)c4c3C2=O)NC(=O)/C(C)=C\C=C\[C@H](C)[C@H](O)[C@@H](C)[C@@H](O)[C@@H](C)[C@H](OC(C)=O)[C@@H]1C` [RIFAMPIN] was run?
**A.** ~100 µg/mL (≈ 122 µM)

**Q.** For `CC1(C)[C@@H]2CC[C@@]1(C)[C@H](NC(=O)c1ccc(Cl)cc1)C2`, which IC50 (Ectromelia virus) is on record?
**A.** 3300 nM

**Q.** And the IC50 (Vaccinia virus [8])?
**A.** 600 nM

**Q.** And the IC50 (Cowpox virus [9])?
**A.** 9200 nM

**Q.** With `CC(=O)C1=C2C=CCCN2C(=O)NC1c1cccc(F)c1` (configuration not stated) as the compound, how does the IC50 (Vaccinia virus [1]) read?
**A.** 100 nM

**Q.** What does the source list for `CC1(C)[C@@H]2CC=C(CNC(=O)C34CC5CC(CC(C5)C3)C4)[C@H]1C2`?
**A.** IC50 (Ectromelia virus): 2700 nM; IC50 (Vaccinia virus [8]): 1700 nM; IC50 (Cowpox virus [9]): 4700 nM
